The values below come from US20230416225A1, “DIAMINOPYRIMIDINE CARBOXAMIDE INHIBITORS OF HPK1” (MERCK SHARP & DOHME LLC, priority 2020, published 2023).

The pIC50 is −log10 of the IC50, conventionally taken in molar units.

pIC50: −log10 of the molar value.

The assay addresses T1, Human HPK1, catalytic domain (Homo sapiens, UniProt Q92918).
T1 construct: purchased Carna
T1 sequence (Q92918 1-346): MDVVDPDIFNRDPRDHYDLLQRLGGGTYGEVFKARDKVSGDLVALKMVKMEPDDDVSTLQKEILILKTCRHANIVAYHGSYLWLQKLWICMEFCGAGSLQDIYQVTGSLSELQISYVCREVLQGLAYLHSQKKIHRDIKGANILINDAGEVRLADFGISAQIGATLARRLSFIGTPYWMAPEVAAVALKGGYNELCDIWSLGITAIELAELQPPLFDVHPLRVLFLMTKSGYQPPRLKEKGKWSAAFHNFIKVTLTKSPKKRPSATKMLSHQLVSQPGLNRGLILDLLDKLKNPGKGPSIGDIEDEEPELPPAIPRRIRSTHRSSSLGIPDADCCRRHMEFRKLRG
The assay can be described thus: HPK1-SLP76 TR-FRET assay. Format: biochemical. To be noted: 75 pM HPK1, 10 uM ATP, 10 nM SLP76, 30 min compound pre-incubation.

Consider `COc1cc2c(cc1Nc1ncc(C(N)=O)c(Nc3ccccc3Br)n1)CN(C1CC(C(=O)O)C1)CC2` (centres unmarked) [Example 9-10, 3-[7-({4-[(2-bromophenyl)amino]-5-carbamoylpyrimidin-2-yl}amino)-6-methoxy-3,4-dihydroisoquinolin-2(1H)-yl]cyclobutane-1-carboxylic acid], for which the pIC50 is 8.80.
In turn, `COc1cc2c(cc1Nc1ncc(C(N)=O)c(Nc3cccc(Cl)c3)n1)CN(C)CC2` [Example 7-25, 4-[(3-chlorophenyl)amino]-2-[(6-methoxy-2-methyl-1,2,3,4-tetrahydroisoquinolin-7-yl)amino]pyrimidine-5-carboxamide] gave a pIC50 of 8.98.
In turn, `COc1cc2c(cc1Nc1ncc(C(N)=O)c(Nc3cn(C)nc3C3CC3)n1)CN(C)CC2` [Example 7-81, 4-((3-cyclopropyl-1-methyl-1H-pyrazol-4-yl)amino)-2-((6-methoxy-2-methyl-1,2,3,4-tetrahydroisoquinolin-7-yl)amino)pyrimidine-5-carboxamide] gave a negative logarithm of the IC50 (pIC50) of 8.51.
The result for `COc1cc2c(cc1Nc1ncc(C(N)=O)c(Nc3ccccc3OC(F)F)n1)CN(C)CC2` [Example 7-114, 4-{[2-(difluoromethoxy)phenyl]amino}-2-[(6-methoxy-2-methyl-1,2,3,4-tetrahydroisoquinolin-7-yl)amino]pyrimidine-5-carboxamide] reads 10.05; that for `COc1cc2c(cc1Nc1ncc(C(N)=O)c(NC3C4CCC3CNC4)n1)CN(C)CC2` (centres unmarked) [Example 26-30, 4-[(3-azabicyclo[3.2.1]octan-8-yl)amino]-2-[(6-methoxy-2-methyl-1,2,3,4-tetrahydroisoquinolin-7-yl)amino]pyrimidine-5-carboxamide], 7.54; that for `NC(=O)c1cnc(Nc2cccc(OC(F)F)c2)nc1Nc1cccc2c1CCNC2=O` [Example 25-16, 2-{[3-(difluoromethoxy)phenyl]amino}-4-[(1-oxo-1,2,3,4-tetrahydroisoquinolin-5-yl)amino]pyrimidine-5-carboxamide], 7.84.
The result for `N#CC1(c2ccc(Nc3ncc(C(N)=O)c(Nc4ccccc4Br)n3)cc2)CC1` [Example 7-100, 4-[(2-bromophenyl)amino]-2-{[4-(1-cyanocyclopropyl)phenyl]amino} pyrimidine-5-carboxamide] reads 7.52; that for `NC(=O)c1cnc(Nc2ccccc2)nc1Nc1cccc2c1CCNC2=O` [Example 25-1, 4-[(1-oxo-1,2,3,4-tetrahydroisoquinolin-5-yl)amino]-2-(phenylamino)pyrimidine-5-carboxamide], 7.61.
`CC(N)c1cccc(Nc2nc(Nc3cc4c(cc3Cl)CCN(C)C4)ncc2C(N)=O)c1` (centres unmarked) [Example 2-6, 4-{[3-(1-aminoethyl)phenyl]-amino}-2-[(6-chloro-2-methyl-1,2,3,4-tetrahydroisoquinolin-7-yl)amino]pyrimidine-5-carboxamide] showed a pIC50 of 9.27.
Consider `COc1cc2c(cc1Nc1ncc(C(N)=O)c(NC3CCc4cccc(OC)c43)n1)CN(C)CC2` (centres unmarked) [Example 26-34, 4-[(7-methoxy-2,3-dihydro-1H-inden-1-yl)amino]-2-[(6-methoxy-2-methyl-1,2,3,4-tetrahydroisoquinolin-7-yl)amino]pyrimidine-5-carboxamide], for which the pIC50 is 8.02.
The compound `N#CC1(c2ccc(Nc3ncc(C(N)=O)c(Nc4ccccc4CO)n3)cc2)CC1` [Example 7-108, 2-{[4-(1-cyanocyclopropyl)phenyl]amino}-4-{[2-(hydroxymethyl)phenyl]amino}py-rimidine-5-carboxamide] gave a pIC50 of 8.38.
For the compound `COc1cc2c(cc1Nc1ncc(C(N)=O)c(Nc3ccccc3Br)n1)CN(S(=O)(=O)C(C)C)CC2` [Example 10-7, 4-[(2-bromophenyl)amino]-2-({6-methoxy-2-[(propan-2-yl)sulfonyl]-1,2,3,4-tetrahydroisoquinolin-7-yl}amino)pyrimidine-5-carboxamide], the negative-log IC50 (pIC50) is 7.28.
Take `NC(=O)c1cnc(NC2(c3ccccc3F)CC2)nc1Nc1cccc2c1CCNC2=O` [Example 25-23, 2-{[1-(2-fluorophenyl)cyclopropyl]amino}-4-[(1-oxo-1,2,3,4-tetrahydroisoquinolin-5-yl)amino]pyrimidine-5-carboxamide]: the pIC50 was 6.46.
Turning to `NC(=O)c1cnc(Nc2ccc(OC(F)F)c(Cl)c2)nc1Nc1cccc2c1CCNC2=O` [Example 25-21, 2-{[3-chloro-4-(difluoromethoxy)phenyl]amino}-4-[(1-oxo-1,2,3,4-tetrahydroisoquinolin-5-yl)amino]pyrimidine-5-carboxamide], the pIC50 is 7.35.
The result for `Cc1cccc(F)c1Nc1nc(Nc2cnn(C)c2)ncc1C(N)=O` [Example 4-35, 4-[(2-fluoro-6-methylphenyl)amino]-2-[(1-methyl-1H-pyrazol-4-yl)amino]pyrimidine-5-carboxamide] reads 6.80.
Take `COc1cc2c(cc1Nc1ncc(C(N)=O)c(Nc3c(F)cccc3Br)n1)CN(C)CC2` [Example 4-4, 4-[(2-bromo-6-fluorophenyl)amino]-2-[(6-methoxy-2-methyl-1,2,3,4-tetrahydroisoquinolin-7-yl)amino]pyrimidine-5-carboxamide]: the pIC50 was 9.92.
With `NC(=O)c1cnc(Nc2ccccc2OC(F)F)nc1Nc1cccc2c1CCNC2=O` [Example 25-27, 2-{[2-(difluoromethoxy)phenyl]amino}-4-[(1-oxo-1,2,3,4-tetrahydroisoquinolin-5-yl)amino]pyrimidine-5-carboxamide], the pIC50 was 6.06.
`COc1cc2c(cc1Nc1ncc(C(N)=O)c(NCc3ccccc3O)n1)CN(C)CC2` [Example 26-57, 4-{[(2-hydroxyphenyl)methyl]amino}-2-[(6-methoxy-2-methyl-1,2,3,4-tetrahydroisoquinolin-7-yl)amino]pyrimidine-5-carboxamide] had a pIC50 of 8.50.
Take `CN1CCc2cc(F)c(Nc3ncc(C(N)=O)c(NC4CCc5cc(F)c(F)cc54)n3)cc2C1` (centres unmarked) [Example 26-54, 4-[(5,6-difluoro-2,3-dihydro-1H-inden-1-yl)amino]-2-[(6-fluoro-2-methyl-1,2,3,4-tetrahydroisoquinolin-7-yl)amino]pyrimidine-5-carboxamide]: the pIC50 was 9.01.
For `COc1cc2c(cc1Nc1ncc(C(N)=O)c(Nc3cc(C4CC4)nn3C)n1)CN(C)CC2` [Example 7-82, 4-((3-cyclopropyl-1-methyl-1H-pyrazol-5-yl)amino)-2-((6-methoxy-2-methyl-1,2,3,4-tetrahydroisoquinolin-7-yl)amino)pyrimidine-5-carboxamide], the pIC50 is 6.19.
`COc1nn(C)cc1Nc1ncc(C(N)=O)c(Nc2cccc3c2CCNC3=O)n1` [Example 7-47, 2-[(3-methoxy-1-methyl-1H-pyrazol-4-yl)amino]-4-[(1-oxo-1,2,3,4-tetrahydroisoquinolin-5-yl)amino]pyrimidine-5-carboxamide] gave a pIC50 of 8.45.
`COc1cc2c(cc1Nc1ncc(C(N)=O)c(Nc3ccccc3Br)n1)CN(CC(F)F)CC2` [Example 10-3, 4-((2-bromophenyl)amino)-2-((2-(2,2-difluoroethyl)-6-methoxy-1,2,3,4-tetrahydroisoquinolin-7-yl)amino)pyrimidine-5-carboxamide] showed a pIC50 of 7.54.
Compound `COc1cc2c(cc1Nc1ncc(C(N)=O)c(Nc3ccccc3C3CC3)n1)CN(C)CC2` [Example 4-26, 4-[(2-cyclopropylphenyl)amino]-2-[(6-methoxy-2-methyl-1,2,3,4-tetrahydroisoquinolin-7-yl)amino]pyrimidine-5-carboxamide] gave a pIC50 of 9.77.
Compound `COc1cc(C2CCNC2)ccc1Nc1ncc(C(N)=O)c(Nc2ccccc2Br)n1` (centres unmarked) [Example 8-3, 4-((2-bromophenyl)amino)-2-((2-methoxy-4-(pyrrolidin-3-yl)phenyl)amino)pyrimidine-5-carboxamide] showed a pIC50 of 8.02.
Turning to `COc1cc2c(cc1Nc1ncc(C(N)=O)c(NC3CCCCCC3)n1)CN(C)CC2` [Example 26-1, 4-(cycloheptylamino)-2-[(6-methoxy-2-methyl-1,2,3,4-tetrahydroisoquinolin-7-yl)amino]pyrimidine-5-carboxamide], the pIC50 was 9.59.
With `COc1cc2c(cc1Nc1ncc(C(N)=O)c(Nc3ccccc3CC3(F)COC3)n1)CN(C)CC2` [Example 13-4, 4-({2-[(3-fluorooxetan-3-yl)methyl]phenyl}amino)-2-[(6-methoxy-2-methyl-1,2,3,4-tetrahydroisoquinolin-7-yl)amino]pyrimidine-5-carboxamide], the pIC50 was 9.18.
Compound `COc1cc2c(cc1Nc1ncc(C(N)=O)c(N[C@@H]3c4ccccc4C[C@H]3O)n1)CN(C)CC2` [Example 26-65, 4-{[(1R,2R)-2-hydroxy-2,3-dihydro-1H-inden-1-yl]amino}-2-[(6-methoxy-2-methyl-1,2,3,4-tetrahydroisoquinolin-7-yl)amino]pyrimidine-5-carboxamide] had a pIC50 of 7.75.
The result for `COc1cc(C2CCNCC2)ccc1Nc1ncc(C(N)=O)c(Nc2ccccc2C(F)(F)F)n1` [Example 8-2, 2-((2-methoxy-4-(piperidin-4-yl)phenyl)amino)-4-((2-(trifluoromethyl)phenyl)amino)pyrimidine-5-carboxamide] reads 7.93; that for `COc1cc2c(cc1Nc1ncc(C(N)=O)c(N[C@H]3c4ccccc4C[C@@H]3O)n1)CN(C)CC2` [Example 26-66, 4-{[(1S,2S)-2-hydroxy-2,3-dihydro-1H-inden-1-yl]amino}-2-[(6-methoxy-2-methyl-1,2,3,4-tetrahydroisoquinolin-7-yl)amino]pyrimidine-5-carboxamide], 6.71.
